Source: patent US20190031618A1, “BENZIMIDAZOLE DERIVATIVES USEFUL AS CB-1 INVERSE AGONISTS” (Janssen Pharmaceutica NV, priority 2015, published 2019)
Where two headings read alike, the source gives them in different places.

What was measured:
Format in all cases: in vivo
[1] = Chronic DIO Mouse: plasma and brain concentrations; conditions: oral, DIO mice, 2 Hours Post Dose
Experimental: (§1) DIO mice received vehicle, test compound (@ 1, 3, 10, and 30 mg/kg) daily for 26 days. At the end of the experiment, the mice were euthanized and blood and tissues were collected.

DIO mice [2] = assay: Chronic DIO Mouse: insulin tolerance test; conditions: for Insulin Tolerance Test Blood Glucose AUC (Std Err): day 21
Experimental: as §1
(§2) An insulin tolerance test (0.7 U/kg Humulin, ip) was performed on day 21 after a 4 hour food removal. Blood glucose was measured at 0, 15, 30, 60 and 120 minutes after insulin. After an overnight fast, an oral glucose tolerance test (2 g/kg glucose) was performed on day 23. Blood glucose was measured at 0, 30, 60 and 120 minutes after glucose challenge.
(§3) Blood glucose was measured from the tail vein with a Lifescan glucometer. Plasma insulin was measured with an ELISA or HTRF kit (Cisbio). Plasma parameters were measured with an Olympus clinical chemistry analyzer.

DIO mice [3] = assay: Chronic DIO Mouse: oral glucose tolerance test; conditions: for Oral Glucose Tolerance Test Blood Glucose AUC: day 23
Experimental: as §1, §2, §3

DIO mice [4] = assay: Chronic DIO Mouse: food intake, body weight, plasma insulin; conditions: DIO mice
Experimental: Male 14-20-week old diet-induced obese mice are ordered from Taconic. Mice were started on a 60% fat diet (D12492, Research Diets, New Brunswick, N.J.) at 6 weeks of age. Mice are single-housed.
as §1
Body weight and food weight (food intake) were monitored daily for days 1-5 and twice weekly thereafter.
as §3

O=C(O)c1cccc(CN2CCC(n3c(C4CC4)nc4ccc(C(c5ccc(Cl)cc5)c5ccc(Cl)cc5)cc43)CC2)c1 [Example 148]
concentration at 2 h ([1]; brain, 1 mg/kg daily, Day 25, read-out: Brain Concentration (Std Dev)): 18.2 ng/g
concentration at 2 h ([1]; brain, 3 mg/kg daily, Day 25, read-out: Brain Concentration (Std Dev)): 29.9 ng/g
concentration at 2 h ([1]; brain, 10 mg/kg daily, Day 25, read-out: Brain Concentration (Std Dev)): 42 ng/g
concentration at 2 h ([1]; brain, 30 mg/kg daily, Day 25, read-out: Brain Concentration (Std Dev)): 73.5 ng/g
concentration at 2 h ([1]; plasma, 1 mg/kg daily, Day 25, read-out: Plasma Concentration (Std Dev)): 288 ng/mL
concentration at 2 h ([1]; plasma, 3 mg/kg daily, Day 25, read-out: Plasma Concentration (Std Dev)): 1350 ng/mL
concentration at 2 h ([1]; plasma, 10 mg/kg daily, Day 25, read-out: Plasma Concentration (Std Dev)): 3430 ng/mL
concentration at 2 h ([1]; plasma, 30 mg/kg daily, Day 25, read-out: Plasma Concentration (Std Dev)): 15200 ng/mL
Insulin Tolerance Test Blood Glucose AUC (Std Err) (DIO mice [2]; 1 mg/kg daily): 19606.5 mg·min/dL
Insulin Tolerance Test Mean Blood Glucose (Std Err) (DIO mice [2]; 1 mg/kg daily, day 21, 0 min after insulin): 194.8 mg/dL
Insulin Tolerance Test Mean Blood Glucose (Std Err) (DIO mice [2]; 1 mg/kg daily, day 21, 15 min after insulin): 193.3 mg/dL
Insulin Tolerance Test Mean Blood Glucose (Std Err) (DIO mice [2]; 1 mg/kg daily, day 21, 30 min after insulin): 155 mg/dL
Insulin Tolerance Test Mean Blood Glucose (Std Err) (DIO mice [2]; 1 mg/kg daily, day 21, 60 min after insulin): 161.3 mg/dL
Insulin Tolerance Test Mean Blood Glucose (Std Err) (DIO mice [2]; 1 mg/kg daily, day 21, 120 min after insulin): 150 mg/dL
Insulin Tolerance Test Blood Glucose AUC (Std Err) (DIO mice [2]; 3 mg/kg daily): 17812.5 (1054.85) mg/dL * min
Insulin Tolerance Test Mean Blood Glucose (Std Err) (DIO mice [2]; 3 mg/kg daily, day 21, 0 min after insulin): 185.9 (6.57) mg/dL
Insulin Tolerance Test Mean Blood Glucose (Std Err) (DIO mice [2]; 3 mg/kg daily, day 21, 15 min after insulin): 160.9 (7.24) mg/dL
Insulin Tolerance Test Mean Blood Glucose (Std Err) (DIO mice [2]; 3 mg/kg daily, day 21, 30 min after insulin): 138.9 (9.10) mg/dL
Insulin Tolerance Test Mean Blood Glucose (Std Err) (DIO mice [2]; 3 mg/kg daily, day 21, 60 min after insulin): 150.9 (11.66) mg/dL
Insulin Tolerance Test Mean Blood Glucose (Std Err) (DIO mice [2]; 3 mg/kg daily, day 21, 120 min after insulin): 136.3 (9.51) mg/dL
Insulin Tolerance Test Blood Glucose AUC (Std Err) (DIO mice [2]; 10 mg/kg daily): 17930.25 (556.44) mg/dL * min
Insulin Tolerance Test Mean Blood Glucose (Std Err) (DIO mice [2]; 10 mg/kg daily, day 21, 0 min after insulin): 168.8 (7.13) mg/dL
Insulin Tolerance Test Mean Blood Glucose (Std Err) (DIO mice [2]; 10 mg/kg daily, day 21, 15 min after insulin): 172.6 (9.66) mg/dL
Insulin Tolerance Test Mean Blood Glucose (Std Err) (DIO mice [2]; 10 mg/kg daily, day 21, 30 min after insulin): 139.1 (7.03) mg/dL
Insulin Tolerance Test Mean Blood Glucose (Std Err) (DIO mice [2]; 10 mg/kg daily, day 21, 60 min after insulin): 146.7 (5.80) mg/dL
Insulin Tolerance Test Mean Blood Glucose (Std Err) (DIO mice [2]; 10 mg/kg daily, day 21, 120 min after insulin): 144.8 (5.86) mg/dL
Insulin Tolerance Test Blood Glucose AUC (Std Err) (DIO mice [2]; 30 mg/kg daily): 14575.5 mg·min/dL
Insulin Tolerance Test Mean Blood Glucose (Std Err) (DIO mice [2]; 30 mg/kg daily, day 21, 0 min after insulin): 143 mg/dL
Insulin Tolerance Test Mean Blood Glucose (Std Err) (DIO mice [2]; 30 mg/kg daily, day 21, 15 min after insulin): 147.6 mg/dL
Insulin Tolerance Test Mean Blood Glucose (Std Err) (DIO mice [2]; 30 mg/kg daily, day 21, 30 min after insulin): 119.8 mg/dL
Insulin Tolerance Test Mean Blood Glucose (Std Err) (DIO mice [2]; 30 mg/kg daily, day 21, 60 min after insulin): 121.3 mg/dL
Insulin Tolerance Test Mean Blood Glucose (Std Err) (DIO mice [2]; 30 mg/kg daily, day 21, 120 min after insulin): 104.5 mg/dL
Oral Glucose Tolerance Test Blood Glucose AUC (DIO mice [3]; 1 mg/kg daily): 19362 mg·min/dL
Oral Glucose Tolerance Test Mean Blood Glucose (DIO mice [3]; 1 mg/kg daily, day 23, 0 min after glucose): 139.90 mg/dL
Oral Glucose Tolerance Test Mean Blood Glucose (DIO mice [3]; 1 mg/kg daily, day 23, 30 min after glucose): 179.2 mg/dL
Oral Glucose Tolerance Test Mean Blood Glucose (DIO mice [3]; 1 mg/kg daily, day 23, 60 min after glucose): 168.5 mg/dL
Oral Glucose Tolerance Test Mean Blood Glucose (DIO mice [3]; 1 mg/kg daily, day 23, 120 min after glucose): 143.5 mg/dL
Oral Glucose Tolerance Test Blood Glucose AUC (DIO mice [3]; 3 mg/kg daily): 19705 mg·min/dL
Oral Glucose Tolerance Test Mean Blood Glucose (DIO mice [3]; 3 mg/kg daily, day 23, 0 min after glucose): 154.89 mg/dL
Oral Glucose Tolerance Test Mean Blood Glucose (DIO mice [3]; 3 mg/kg daily, day 23, 30 min after glucose): 153.11 mg/dL
Oral Glucose Tolerance Test Mean Blood Glucose (DIO mice [3]; 3 mg/kg daily, day 23, 60 min after glucose): 183.89 mg/dL
Oral Glucose Tolerance Test Mean Blood Glucose (DIO mice [3]; 3 mg/kg daily, day 23, 120 min after glucose): 150.44 mg/dL
Oral Glucose Tolerance Test Blood Glucose AUC (DIO mice [3]; 10 mg/kg daily): 19740 mg·min/dL
Oral Glucose Tolerance Test Mean Blood Glucose (DIO mice [3]; 10 mg/kg daily, day 23, 0 min after glucose): 141.60 mg/dL
Oral Glucose Tolerance Test Mean Blood Glucose (DIO mice [3]; 10 mg/kg daily, day 23, 30 min after glucose): 190.1 mg/dL
Oral Glucose Tolerance Test Mean Blood Glucose (DIO mice [3]; 10 mg/kg daily, day 23, 60 min after glucose): 176.2 mg/dL
Oral Glucose Tolerance Test Mean Blood Glucose (DIO mice [3]; 10 mg/kg daily, day 23, 120 min after glucose): 132.8 mg/dL
Oral Glucose Tolerance Test Blood Glucose AUC (DIO mice [3]; 30 mg/kg daily): 19276.5 mg·min/dL
Oral Glucose Tolerance Test Mean Blood Glucose (DIO mice [3]; 30 mg/kg daily, day 23, 0 min after glucose): 125.30 mg/dL
Oral Glucose Tolerance Test Mean Blood Glucose (DIO mice [3]; 30 mg/kg daily, day 23, 30 min after glucose): 184.5 mg/dL
Oral Glucose Tolerance Test Mean Blood Glucose (DIO mice [3]; 30 mg/kg daily, day 23, 60 min after glucose): 179 mg/dL
Oral Glucose Tolerance Test Mean Blood Glucose (DIO mice [3]; 30 mg/kg daily, day 23, 120 min after glucose): 126.9 mg/dL
Mean Body Weight (Std Err) (DIO mice [4]; 1 mg/kg daily, Day 0): 42.03 (0.80) Grams
Mean Body Weight (Std Err) (DIO mice [4]; 1 mg/kg daily, Day 1): 42.63 (0.79) Grams
Mean Body Weight (Std Err) (DIO mice [4]; 1 mg/kg daily, Day 2): 42.56 (0.86) Grams
Mean Body Weight (Std Err) (DIO mice [4]; 1 mg/kg daily, Day 3): 42.46 (0.91) Grams
Mean Body Weight (Std Err) (DIO mice [4]; 1 mg/kg daily, Day 4): 42.26 (0.87) Grams
Mean Body Weight (Std Err) (DIO mice [4]; 1 mg/kg daily, Day 5): 42.31 (0.81) Grams
Mean Body Weight (Std Err) (DIO mice [4]; 1 mg/kg daily, Day 8): 41.62 (0.79) Grams
Mean Body Weight (Std Err) (DIO mice [4]; 1 mg/kg daily, Day 11): 41.91 (0.77) Grams
Mean Body Weight (Std Err) (DIO mice [4]; 1 mg/kg daily, Day 15): 42.67 (1.02) Grams
Mean Body Weight (Std Err) (DIO mice [4]; 1 mg/kg daily, Day 18): 40.54 (1.23) Grams
Mean Body Weight (Std Err) (DIO mice [4]; 1 mg/kg daily, Day 24): 41.11 (1.30) Grams
Plasma Insulin (Std Err) (DIO mice [4]; 1 mg/kg daily, chronic study): 5.92 (0.92) ng/mL
Mean Body Weight (Std Err) (DIO mice [4]; 3 mg/kg daily, Day 0): 42.28 (0.49) Grams
Mean Body Weight (Std Err) (DIO mice [4]; 3 mg/kg daily, Day 1): 42.94 (0.45) Grams
Mean Body Weight (Std Err) (DIO mice [4]; 3 mg/kg daily, Day 2): 42.12 (0.43) Grams
Mean Body Weight (Std Err) (DIO mice [4]; 3 mg/kg daily, Day 3): 41.85 (0.47) Grams
